In brackets after ≈: the same amount, converted by molar mass. Activity calls are given as the source filed them. The rule behind the calls is not given here.
Experiments:
HT-1080 [1] = assay: Effect on nitric oxide production in human HT1080 cells at 100 ug/ml by crystal violet coloration assay; assay type: functional
[2] = Cytotoxicity against mouse NIH3T3 cells after 72 hrs; assay type: cell-based; conditions: read-out: TD50
Mus musculus [3] = assay: Toxicity in ICR mouse assessed as body weight at 10 mg/kg, ip after 9 days; assay type: organism-based; parameters: dose 10 mg/kg, route intraperitoneal; conditions: in vivo, 216 h
MG-22A [4] = assay: Effect on nitric oxide production in mouse MG22A cells at 100 ug/ml by crystal violet coloration assay; assay type: functional
MG-22A [5] = assay: Cytotoxicity against mouse MG22A cells after 72 hrs; assay type: functional; conditions: read-out: TD50 (the source's name)
CCRF S-180 [6] = assay: Antitumor activity against S180 cells inoculated in ICR mouse assessed as inhibition of tumor growth at 10 mg/kg, ip after 9 days; assay type: functional; conditions: for inhibition in vivo at 10 mg/kg: CCRF S-180, ip, 216 h, route intraperitoneal
HT-1080 [7] = assay: Cytotoxicity against human HT1080 cells after 72 hrs; assay type: functional; conditions: for CC50: HT-1080, 72 h, read-out: TD50 (the source's name)
HT-1080 [8] = assay: Effect on cell morphology in human HT1080 cells after 72 hrs; assay type: functional, cell-based
CCRF S-180 [9] = assay: Antitumor activity against S180 cells inoculated in ICR mouse assessed as inhibition of tumor growth at 10 mg/kg, ip after 8 days; assay type: functional; conditions: CCRF S-180, ip, 192 h, route intraperitoneal
Mus musculus [10] = assay: Toxicity in ICR mouse assessed as body weight at 10 mg/kg, ip after 8 days; assay type: organism-based; parameters: dose 10 mg/kg, route intraperitoneal; conditions: in vivo, 192 h
HT-1080 [11] = assay: Induction of apoptosis in human HT1080 cells after 72 hrs; assay type: functional, cell-based
Mus musculus [12] = assay: Toxicity in ICR mouse assessed as body weight at 2 mg/kg, ip after 2 days; assay type: organism-based; parameters: dose 2 mg/kg, route intraperitoneal; conditions: in vivo, 48 h
MG-22A [13] = assay: Induction of apoptosis in mouse MG22A cells after 72 hrs; assay type: functional, cell-based
CCRF S-180 [14] = assay: Antitumor activity against S180 cells inoculated in ICR mouse assessed as inhibition of tumor growth at 2 mg/kg, ip after 2 days; assay type: functional; conditions: CCRF S-180, ip, 48 h, route intraperitoneal

| Structure (SMILES) | Activity (HT-1080 [1]) | CC50 at 72 h [2] | Activity (Mus musculus [3]) | Activity (MG-22A [4]) | CC50 (MG-22A [5]) | inhibition in vivo at 10 mg/kg (CCRF S-180 [6]) | Activity (HT-1080 [7]) | Activity (HT-1080 [8]) | inhibition in vivo at 10 mg/kg (CCRF S-180 [9]) | CC50 (HT-1080 [7]) | Activity (Mus musculus [10]) | Activity (HT-1080 [11]) | Activity (Mus musculus [12]) | Activity (MG-22A [13]) | inhibition in vivo at 2 mg/kg (CCRF S-180 [14]) | Activity (CCRF S-180 [6]) |
| --- | --- | --- | --- | --- | --- | --- | --- | --- | --- | --- | --- | --- | --- | --- | --- | --- |
| Cc1nn[se]c1C(=O)N(C(C)C)C(C)C | 29% | 718 µg/mL (≈ 2620 µM) | 0% | 200% | 31 µg/mL (≈ 113 µM) | -32% | Not toxic |  |  |  |  |  |  |  |  |  |
| Cc1nn[se]c1C(=O)N[C@@H](C)c1ccccc1 | 300% | 407 µg/mL (≈ 1380 µM) |  | 200% | 32 µg/mL (≈ 109 µM) |  |  | Active | -23% | 31 µg/mL (≈ 105 µM) | 0% |  |  |  |  |  |
| Cc1nn[se]c1C(=O)N1CCCCC1 | 100% | 123 µg/mL (≈ 476 µM) | 8% | 400% | 27 µg/mL (≈ 105 µM) | 71% |  |  |  | 31 µg/mL (≈ 120 µM) |  |  |  |  |  |  |
| Cc1nn[se]c1C(=O)N(C)C | 10% | 351 µg/mL (≈ 1610 µM) |  | 63% | 35 µg/mL (≈ 160 µM) |  | Not toxic |  |  |  |  | Active | 17% | Active | 58% |  |
| Cc1nn[se]c1C(=O)N[C@H](C)c1ccccc1 | 17% | 195 µg/mL (≈ 663 µM) | 3% | 400% | 29 µg/mL (≈ 98.6 µM) | 20% |  | inactive |  | 100 µg/mL (≈ 340 µM) |  |  |  |  |  |  |
| Cc1nn[se]c1C(=O)N1CCOCC1 | 11% | 280 µg/mL (≈ 1080 µM) | 8% | 250% | 34 µg/mL (≈ 131 µM) |  | Not toxic |  |  |  |  |  |  |  |  | Non-toxic |
| Cc1nn[se]c1C(=O)N1CCCC1 | 350% | 214 µg/mL (≈ 876 µM) | 23% | 350% | 33 µg/mL (≈ 135 µM) | 85% |  |  |  | 19 µg/mL (≈ 77.8 µM) |  |  |  | Active |  |  |

Source: ChEMBL document CHEMBL1140612, “4-Methyl-1,2,3-selenadiazole-5-carboxylic acid amides: antitumor action and cytotoxic effect correlation” (Eur J Med Chem, 2007)
